Literature values, collected in US9550991B2, “Transcription factor decoys” (PROCARTA […]., priority 2010, dated 2017).
“Also recorded” adds a separate entry of the source.

Assays:
[1] = physiological buffers, biological fluids, salt, dilution, storage

Structure (SMILES) | in vitro toxicity compared to dequalinium | stability of complexes formed with DNA [1]
Nc1c2c([n+](CCCCCCCCCC[n+]3c4c(c(N)c5ccccc53)CCCC4)c3ccccc13)CCCC2.[Cl-].[Cl-] [Compound 7, 10,10′-(decane-1,10-diyl)bis(9-amino-1,2,3,4-tetrahydroacridinium) dichloride] | lower toxicity in vitro compared to dequalinium; also recorded: less in vitro toxicity than dequalinium | forms more stable complexes
Cc1cc(N)c2ccccc2[n+]1CCCCCCCCCC[n+]1c(C)cc(N)c2ccccc21 [dequalinium] |  | unstable over time
